{"source": "patent US20260317367A1", "about": "“SALTS INCLUDING CRYSTALLINE SALTS OF 25-HYDROXY-CHOLEST-5-EN-3-SULFATE AND METHODS FOR PREPARING SAME” (Durect Corporation, priority 2022, published 2026)", "key": {"[1]": {"test": "Dynamic vapor sorption (DVS), hygroscopicity", "format": "physicochemical", "conditions": "DVS", "source_text": "Dynamic vapor sorption (DVS) measures the uptake of a vapor (typically water) by a sample when exposed to a changing relative humidity. The loss of water can also be measured as relative humidity is decreased. Hygroscopic materials tend to absorb water more readily than non-hygroscopic. In some cases, hydrates absorb water to create higher-order hydrates (e.g., a monohydrate converting to a dihydrate when exposed to increasingly humid conditions). In some salts of the disclosure, moisture is retained upon exposure in a DVS experiment and little or no weight loss is observed upon heating from room temperature. In such experiments, the hygroscopic nature of the salt under study may indicate the formation of a hydrate from an anhydrate. […] Exemplary methods for collecting DVS data are set forth in Example 26.\nDynamic vapor sorption data was collected on a Surface Measurement System DVS Intrinsic instrument. The samples were not dried prior to analysis. Sorption and desorption data were collected over a range from 5% to 95% RH in 10% RH increments under a nitrogen purge. The equilibrium criteria used for the analyses were 0.001 dm/dt weight change in 5 minutes with a minimum step time of 30 minutes and maximum equilibration time of 180 minutes with a 3 minute data logging interval. Data were not corrected for the initial moisture content of the sample."}, "[2]": {"test": "Humidity / water activity stability of crystalline 25HC3S sodium forms", "format": "physicochemical"}, "lipid biosynthesis": {"system": "lipid biosynthesis", "conditions": "shown previously; cited from earlier work"}, "[3]": {"system": "cholesterol secretion and degradation", "conditions": "shown previously; cited from earlier work"}}, "note": "Where a name gives a salt, the structure may show the parent alone.", "data": [{"molecule": "CC(CCCC(C)(C)O)C1CCC2C3CC=C4CC(OS(=O)(=O)O)CCC4(C)C3CCC12C", "note": "(centres unmarked) [Form I, reference compound]", "values": [{"measurement": "Hygroscopicity (in words)", "setting": "[1]", "value": "hygroscopic"}, {"measurement": "Water activity above which a liquid crystal may form", "setting": "[2]; high water activities", "value": "above 0.73"}]}, {"molecule": "C[C@H](CCCC(C)(C)O)[C@H]1CCC2C3CC=C4C[C@@H](OS(=O)(=O)O)CC[C@]4(C)C3CC[C@@]21C", "note": "(stereo partly drawn) [Salt 25HC3S, [(3S,10R,13R,17R)-17-[(1R)-5-hydroxy-1,5-dimethyl-hexyl]-10,13-dimethyl-2,3,4,7,8,9,11,12,14,15,16,17-dodecahydro-1H-cyclopenta[a]phenanthren-3-yl]sulfate]", "values": [{"measurement": "Effect on lipid biosynthesis", "setting": "lipid biosynthesis", "value": "decreases"}, {"measurement": "Effect on cholesterol secretion and degradation", "setting": "[3]", "value": "increases"}]}, {"molecule": "C[C@H](CCCC(C)(C)O)[C@H]1CC[C@H]2[C@@H]3CC=C4C[C@@H](OS(=O)(=O)[O-])CC[C@]4(C)[C@H]3CC[C@]12C.[Na+]", "note": "[crystalline 25HC3S sodium, Sodium [(3S,10R,13R,17R)-17-[(1R)-5-hydroxy-1,5-dimethyl-hexyl]-10,13-dimethyl-2,3,4,7,8,9,11,12,14,15,16,17-dodecahydro-1H-cyclopenta[a]phenanthren-3-yl]sulfate]", "values": [{"measurement": "Behaviour under humid conditions (in words)", "setting": "[2]; humid conditions", "value": "stabilizes as a hydrate"}]}]}
